Test: Henry solubility constant Hcp at 310 K (mol/(m3 Pa))
Conditions: reference: Mirvish et al. (1976)

CC1CN(N=O)CC(C)N1N=O (stereo not given) [2,6-dimethyldinitrosopiperazine]
Henry solubility constant Hcp at 310 K: > 190

CC1CN(N=O)CC(C)O1 (stereo not given) [2,6-dimethylnitrosomorpholine]
Henry solubility constant Hcp at 310 K: 35

O=NN1CCOCC1 [4-nitrosomorpholine]
Henry solubility constant Hcp at 310 K: 390

CC(C)N(N=O)C(C)C [N-(1-methylethyl)-N-nitroso-2-propanamine]
Henry solubility constant Hcp at 310 K: 1.2

CN(Cc1ccccc1)N=O [N-methyl-N-nitrosobenzenemethanamine]
Henry solubility constant Hcp at 310 K: 0.79

CCOC(=O)N(C)N=O [N-nitroso-N-methylurethane]
Henry solubility constant Hcp at 310 K: 0.39

CCCCN(CCCC)N=O [N-nitrosodi-N-butylamine]
Henry solubility constant Hcp at 310 K: 0.72

CCN(CC)N=O [N-nitrosodiethylamine]
Henry solubility constant Hcp at 310 K: 1.4

CN(C)N=O [N-nitrosodimethylamine]
Henry solubility constant Hcp at 310 K: 5.2

CCCN(CCC)N=O [N-nitrosodipropylamine]
Henry solubility constant Hcp at 310 K: 1.8

O=NN1CCCCC1 [N-nitrosopiperidine]
Henry solubility constant Hcp at 310 K: 11

O=NN1CCN(N=O)CC1 [dinitrosopiperazine]
Henry solubility constant Hcp at 310 K: > 190

CCCCN(CC)N=O [ethylbutylnitrosamine]
Henry solubility constant Hcp at 310 K: 0.99

CCN(C#N)N=O [ethylnitrosocyanamide]
Henry solubility constant Hcp at 310 K: 0.26

CCCCN(C)N=O [methylbutylnitrosamine]
Henry solubility constant Hcp at 310 K: 1.7

CC(=O)N(C)N=O [methylnitrosoacetamide]
Henry solubility constant Hcp at 310 K: 0.086

CN(N=O)C(N)=O [methylnitrosourea]
Henry solubility constant Hcp at 310 K: > 190

CCCCCN(C)N=O [methylpentylnitrosamine]
Henry solubility constant Hcp at 310 K: 2

O=NN1CCC1 [nitrosoazetidine]
Henry solubility constant Hcp at 310 K: > 190

O=NN1CCCCCC1 [nitrosohexamethyleneimine]
Henry solubility constant Hcp at 310 K: 43

— Sander's compilation of Henry's law constants (doi:10.1093/jnci/56.6.1125)
